Test results from publication PMC10650464, “Natural Compounds Purified from the Leaves of Aristotelia chilensis: Makomakinol, a New Alkaloid and the Effect of Aristoteline and Hobartine on NaV Channels” (International Journal of Molecular Sciences, 2023).
Where two headings read alike, the source gives them in different places.

What was measured:
[1] = target: T1, human NaV1.8/β3 (Homo sapiens, UniProt Q9Y5Y9); experiment: Automated whole-cell patch-clamp electrophysiology (QPatch-16), NaV1.8; type: cell-based; conditions: for IC50: CHO cells, mean ± SEM; for V1/2 of voltage-dependence of activation of NaV1.8 / V1/2 of voltage-dependence of steady-state fast inactivation of NaV1.8: compound at 50 µM, compared with control before addition, paired t-test
T1 construct: expressed in transfected cells
T1 sequence (Q9Y5Y9 whole entry): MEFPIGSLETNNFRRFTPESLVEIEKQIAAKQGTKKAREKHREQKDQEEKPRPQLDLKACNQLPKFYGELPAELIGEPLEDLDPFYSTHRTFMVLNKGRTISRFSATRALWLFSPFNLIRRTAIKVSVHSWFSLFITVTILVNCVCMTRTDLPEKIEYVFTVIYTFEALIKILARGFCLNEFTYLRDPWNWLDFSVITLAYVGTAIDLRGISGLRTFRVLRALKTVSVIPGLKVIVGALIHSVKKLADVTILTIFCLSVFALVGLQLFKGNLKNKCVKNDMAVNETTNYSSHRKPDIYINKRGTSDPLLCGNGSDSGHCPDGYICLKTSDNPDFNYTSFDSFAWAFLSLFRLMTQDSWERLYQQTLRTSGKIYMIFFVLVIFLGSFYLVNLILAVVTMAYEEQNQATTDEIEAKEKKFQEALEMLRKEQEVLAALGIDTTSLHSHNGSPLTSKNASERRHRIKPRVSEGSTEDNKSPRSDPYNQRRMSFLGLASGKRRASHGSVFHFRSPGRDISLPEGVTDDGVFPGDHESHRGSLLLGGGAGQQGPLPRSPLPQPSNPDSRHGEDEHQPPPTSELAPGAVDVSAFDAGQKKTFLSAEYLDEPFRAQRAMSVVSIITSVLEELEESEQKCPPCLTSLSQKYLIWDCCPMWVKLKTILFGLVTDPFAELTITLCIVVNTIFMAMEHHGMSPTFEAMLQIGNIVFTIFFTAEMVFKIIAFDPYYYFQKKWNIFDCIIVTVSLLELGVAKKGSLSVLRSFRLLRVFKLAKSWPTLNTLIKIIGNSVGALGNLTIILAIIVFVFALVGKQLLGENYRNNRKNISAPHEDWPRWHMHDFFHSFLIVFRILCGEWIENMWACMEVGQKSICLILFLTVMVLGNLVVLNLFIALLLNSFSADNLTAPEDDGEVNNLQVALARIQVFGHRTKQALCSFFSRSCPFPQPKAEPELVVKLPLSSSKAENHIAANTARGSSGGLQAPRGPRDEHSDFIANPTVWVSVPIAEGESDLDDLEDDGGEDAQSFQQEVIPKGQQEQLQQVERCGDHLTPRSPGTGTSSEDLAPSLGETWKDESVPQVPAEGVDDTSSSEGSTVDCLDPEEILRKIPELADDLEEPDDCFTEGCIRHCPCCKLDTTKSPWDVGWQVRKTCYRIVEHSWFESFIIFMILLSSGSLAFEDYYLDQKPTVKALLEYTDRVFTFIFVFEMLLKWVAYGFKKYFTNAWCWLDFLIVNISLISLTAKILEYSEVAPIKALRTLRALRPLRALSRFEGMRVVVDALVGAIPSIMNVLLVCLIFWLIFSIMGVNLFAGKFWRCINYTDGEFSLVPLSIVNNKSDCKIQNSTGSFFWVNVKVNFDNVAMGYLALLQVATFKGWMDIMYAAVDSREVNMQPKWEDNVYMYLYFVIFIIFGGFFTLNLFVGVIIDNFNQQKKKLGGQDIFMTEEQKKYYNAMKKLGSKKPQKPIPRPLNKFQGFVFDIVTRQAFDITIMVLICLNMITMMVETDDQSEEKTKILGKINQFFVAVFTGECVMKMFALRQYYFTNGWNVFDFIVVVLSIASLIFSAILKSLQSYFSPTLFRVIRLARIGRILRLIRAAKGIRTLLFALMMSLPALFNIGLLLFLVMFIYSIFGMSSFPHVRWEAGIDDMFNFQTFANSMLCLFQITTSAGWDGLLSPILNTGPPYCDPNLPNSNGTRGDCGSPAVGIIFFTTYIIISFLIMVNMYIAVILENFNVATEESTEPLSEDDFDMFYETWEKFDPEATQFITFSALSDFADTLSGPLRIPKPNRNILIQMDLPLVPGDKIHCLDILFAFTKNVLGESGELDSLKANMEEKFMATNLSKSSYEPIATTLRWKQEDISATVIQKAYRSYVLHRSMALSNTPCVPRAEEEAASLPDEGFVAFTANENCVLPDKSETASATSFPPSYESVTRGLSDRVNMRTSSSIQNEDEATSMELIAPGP
T1 sequence (Q9NY72 25-215 partner limits assumed): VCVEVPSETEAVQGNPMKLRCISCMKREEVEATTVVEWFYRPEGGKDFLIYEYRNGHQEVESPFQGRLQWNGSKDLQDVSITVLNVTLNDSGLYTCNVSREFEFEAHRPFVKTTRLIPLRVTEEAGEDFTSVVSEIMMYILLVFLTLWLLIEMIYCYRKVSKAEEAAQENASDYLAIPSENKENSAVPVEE
Procedure: (§1) Human embryonic kidney (HEK) 293 cells stably expressing human NaV1.7/β1 (SB Drug Discovery, Glasgow, UK) or Chinese hamster ovary (CHO) cells stably expressing human NaV1.8/β3 in a tetracycline-inducible system were cultured in a minimum essential media (MEM) supplemented with 10% fetal bovine serum (FBS), 2 mM l-glutamine, and selection antibiotics as recommended by the manufacturer. To induce hNaV1.8 expression, tetracycline (1 μg/mL) was added to the culture media 72 h prior to the functional assays. The cells were passaged every 3–4 days after reaching a 70–80% confluence using TrypLE Express (Thermo Fisher Scientific, Scoresby, VIC, Australia) and grown in an incubator at 37 °C with 5% CO2. Prior to the electrophysiology experiments, the cells were dissociated with TrypLE Express and resuspended in Dulbecco’s Modified Eagle Medium (DMEM) with 25 mM HEPES, 100 U/mL penicillin-streptomycin, and 0.04 mg/mL of a trypsin inhibitor from Glycine max (soybean), then stirred for 30 min.
Whole-cell patch-clamp experiments were performed on a QPatch-16 automated electrophysiology platform (Sophion Bioscience, Ballerup, Denmark) using single hole (QPlate 16 with a standard resistance of 2 ± 0.4 MΩ for NaV1.7) or multi-hole (QPlate 16× with a standard resistance 0.2 ± 0.04 MΩ for NaV1.8). Whole-cell currents were filtered at 8 kHz and acquired at 25 kHz and the linear leak was corrected using P/4 subtraction (leak potential −90 mV, leak sweep amplitude 10%).
The extracellular solution contained in mM included NaCl 140 (NaCl 70/Choline Chloride 70 for NaV1.7), KCl 4, CaCl2 2, MgCl2 1, HEPES 10, and glucose 10; pH 7.4; osmolarity 305 mOsm. TTX (1 μM) was added to the extracellular solution for the NaV1.8 recordings to inhibit endogenous TTX-sensitive NaV currents in CHO cells. The intracellular solution contained in mM included CsF 140, EGTA/CsOH 1/5, HEPES 10, and NaCl 10; pH 7.3 with CsOH; osmolarity 320 mOsm. Compounds were made up to a 100 mM stock in DMSO and diluted in an extracellular solution at the concentrations stated. Concentration–response curves at the resting state were acquired using a holding potential of −90 mV and a 50 ms test pulse to −20 mV (for NaV1.7) or +10 mV (for NaV1.8) every 20 s (0.05 Hz). Concentration–response curves at the inactivated state were acquired using a holding potential of −90 mV, an 8 s conditioning pulse to −40 mV, a 20 ms recovery pulse to −90 mV, and a 50 ms test pulse to +10 mV every 20 s (0.05 Hz). Peak current was normalized to the buffer control after 2 min incubations of increasing concentrations of the compound (1–100 μM). I–V curves were obtained with a holding potential of −90 mV and a series of 500 ms step pulses that ranged from −80 to +90 mV in 5 mV increments, followed by a 20 ms test pulse to +10 mV to assess the voltage-dependence of the steady-state fast inactivation (repetition interval 5 s). Peak currents were normalized to the buffer control before and after the 5 min incubation of the compound (50 μM).
The data were plotted and analyzed via GraphPad Prism, version 9.5.1. Statistical significance was defined as p < 0.05 and was determined via the paired t-test. Concentration–response curves were fitted with a four-parameter Hill equation with the variable Hill coefficient. Conductance–voltage curves were generated by calculating the conductance (G) at each voltage (V) using the equation G = I/(V − Vrev), where Vrev is the reversal potential. Conductance–voltage and steady-state fast inactivation relationships were fitted using a Boltzmann equation. The data are expressed as the mean ± standard error of the mean (SEM).

[2] = target: human NaV1.7/β1 (Homo sapiens, UniProt Q15858); experiment: Automated whole-cell patch-clamp electrophysiology (QPatch-16), NaV1.7; type: cell-based; conditions: 50 ms voltage step to −20 mV from −90 mV holding potential; HEK293 cells; mean ± SEM; read-out: IC50, inhibition of NaV1.7 peak current
human NaV1.7/β1, sequence (Q15858 whole entry): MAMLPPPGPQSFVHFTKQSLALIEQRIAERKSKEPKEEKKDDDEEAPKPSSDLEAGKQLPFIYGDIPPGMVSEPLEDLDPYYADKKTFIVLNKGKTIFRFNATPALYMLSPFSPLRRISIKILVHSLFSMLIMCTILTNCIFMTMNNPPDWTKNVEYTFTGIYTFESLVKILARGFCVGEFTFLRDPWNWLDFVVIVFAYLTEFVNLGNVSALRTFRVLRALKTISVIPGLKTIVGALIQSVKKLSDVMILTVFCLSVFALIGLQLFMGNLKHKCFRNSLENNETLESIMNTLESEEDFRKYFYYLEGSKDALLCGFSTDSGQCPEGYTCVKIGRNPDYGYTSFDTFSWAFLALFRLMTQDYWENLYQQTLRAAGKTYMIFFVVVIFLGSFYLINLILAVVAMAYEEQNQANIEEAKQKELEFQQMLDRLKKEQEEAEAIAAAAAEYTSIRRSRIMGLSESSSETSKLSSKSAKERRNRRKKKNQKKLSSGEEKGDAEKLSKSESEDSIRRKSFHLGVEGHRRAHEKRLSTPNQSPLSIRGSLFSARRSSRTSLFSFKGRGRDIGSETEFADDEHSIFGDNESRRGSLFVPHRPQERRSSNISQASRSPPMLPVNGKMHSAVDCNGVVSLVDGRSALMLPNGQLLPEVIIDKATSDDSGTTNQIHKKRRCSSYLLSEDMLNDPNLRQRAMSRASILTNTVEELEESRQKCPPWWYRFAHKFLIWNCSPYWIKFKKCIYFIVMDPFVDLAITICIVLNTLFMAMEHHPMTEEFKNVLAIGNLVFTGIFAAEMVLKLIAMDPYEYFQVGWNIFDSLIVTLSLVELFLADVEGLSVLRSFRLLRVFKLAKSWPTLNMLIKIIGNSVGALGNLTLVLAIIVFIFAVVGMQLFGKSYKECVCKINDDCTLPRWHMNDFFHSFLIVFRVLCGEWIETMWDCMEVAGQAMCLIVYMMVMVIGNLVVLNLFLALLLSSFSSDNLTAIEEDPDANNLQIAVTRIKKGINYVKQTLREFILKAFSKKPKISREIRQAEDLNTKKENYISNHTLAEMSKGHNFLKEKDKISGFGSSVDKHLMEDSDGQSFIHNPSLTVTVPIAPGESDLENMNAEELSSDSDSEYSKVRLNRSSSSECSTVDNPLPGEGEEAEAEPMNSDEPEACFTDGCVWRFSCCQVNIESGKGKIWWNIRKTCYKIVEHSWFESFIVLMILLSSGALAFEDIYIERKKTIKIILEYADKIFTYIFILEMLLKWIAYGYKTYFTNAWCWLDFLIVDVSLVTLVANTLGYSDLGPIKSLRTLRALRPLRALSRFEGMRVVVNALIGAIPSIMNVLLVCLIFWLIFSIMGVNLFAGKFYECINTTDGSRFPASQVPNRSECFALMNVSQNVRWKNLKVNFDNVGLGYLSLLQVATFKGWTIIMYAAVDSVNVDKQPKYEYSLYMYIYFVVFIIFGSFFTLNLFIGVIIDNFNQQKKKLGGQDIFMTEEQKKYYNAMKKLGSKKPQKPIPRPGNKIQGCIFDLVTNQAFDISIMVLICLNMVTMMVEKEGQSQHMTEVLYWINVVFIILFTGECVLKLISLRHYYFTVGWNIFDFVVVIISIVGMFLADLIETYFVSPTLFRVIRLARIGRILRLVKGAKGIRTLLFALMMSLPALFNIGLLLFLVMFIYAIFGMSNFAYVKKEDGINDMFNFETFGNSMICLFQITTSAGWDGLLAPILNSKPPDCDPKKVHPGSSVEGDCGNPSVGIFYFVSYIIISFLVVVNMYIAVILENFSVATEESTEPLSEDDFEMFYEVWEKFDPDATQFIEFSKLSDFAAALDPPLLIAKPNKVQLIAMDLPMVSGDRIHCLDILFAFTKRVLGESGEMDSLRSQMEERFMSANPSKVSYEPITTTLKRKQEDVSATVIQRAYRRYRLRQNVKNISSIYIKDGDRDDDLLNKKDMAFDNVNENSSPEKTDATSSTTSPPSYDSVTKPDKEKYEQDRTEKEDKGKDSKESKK
human NaV1.7/β1, sequence (Q07699 19-218 partner): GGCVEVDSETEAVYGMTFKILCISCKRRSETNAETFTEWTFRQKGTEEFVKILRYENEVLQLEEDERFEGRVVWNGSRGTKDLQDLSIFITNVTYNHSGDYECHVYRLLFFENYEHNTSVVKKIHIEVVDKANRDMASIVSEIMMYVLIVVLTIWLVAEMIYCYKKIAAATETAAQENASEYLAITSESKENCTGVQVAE
Procedure: as §1, with “min. […]” for “min.”
The data were plotted and analyzed via GraphPad Prism, version 9.5.1. Statistical significance was defined as p < 0.05 and was determined via the paired t-test. […] The data are expressed as the mean ± standard error of the mean (SEM).

[3] = test system: nAChR subtype α3β4; design: method as in PMID 31276409; conditions: cited from earlier work
[4] = test system: rodent vascular smooth muscle; design: method as in PMID 31362388; conditions: rodent vascular smooth muscle ex vivo; via activation of potassium channels and inhibition of CaV1.2; read-out: IC50, vasodilation; cited from earlier work
[5] = 8 s conditioning voltage step to −40 mV to inactivate approximately half of the available channels, read-out: IC50, inhibition of NaV1.8 peak current after inactivating conditioning step
[6] = resting state: 50 ms voltage step to 10 mV from −90 mV holding potential, read-out: IC50, inhibition of NaV1.8 peak current

SMILES	Shift of V1/2 of voltage-dependence of activation of NaV1.8 ([1]; 50 µM, n = 5) [mV]	IC50 [1, 5] [µM]	V1/2 of voltage-dependence of activation of NaV1.8 [1] [mV]	V1/2 of voltage-dependence of steady-state fast inactivation of NaV1.8 [1] [mV]	IC50 [1, 6] [µM]	IC50 [2] [µM]	IC50 [3] [µM]	IC50 [4] [µM]
CC1=CC[C@H]2C[C@@H]1[C@@H](Cc1c[nH]c3ccccc13)NC2(C)C [hobartine]	−9.0	20 ± 2	−8.6 ± 0.8	−41.1 ± 3.8	54 ± 1	69 ± 3		
CC1(C)NC2Cc3c([nH]c4ccccc34)C3(C)CCC1CC23 (stereo not shown) [aristoteline]		30 ± 6	1.0 ± 0.0	−34.9 ± 1.4	68 ± 3	49 ± 7	0.4	16
